Data on 93 molecules can be found in ChEMBL document CHEMBL3507680, “University of Dundee, Gates Library screen for HepG2 cell viability”.

A short description of this data set: Human HepG2 cell viability assay in 384 well format. To be noted: HepG2 cells, read-out: Inhibition. The data set is classed as toxicity, cell-based. Also on record: dose 125 nL, time 70.5 hour; concentration not given beside the values.

On to `Cc1ncsc1CN1C[C@@H]2CN(Cc3cccnc3)CCO[C@@H]2C1`, for which the cytotoxicity at 70.5 h was -5.27%. Under `c1csc(CN2CCc3nc(N4CCOCC4)nc(NC4CC4)c3C2)n1` stands 17%.

For the molecule `COc1cccc(N2CC3(CCN(c4cc(OC)ncn4)C3)CC2=O)c1` (stereo not drawn), the cytotoxicity at 70.5 h turned out to be 7.12%. The result for `C1CN(c2nc3c(c(NC4CC4)n2)CN(CC2CCOC2)CC3)CCO1` (stereo not drawn) reads -9.83%; that for `COc1cc(N2CC3(CCN(S(=O)(=O)C4CC4)C3)C2)ncn1`, -7.2%; that for `Cc1ccsc1C(=O)N1CCCc2c(c(=O)n(C)n2C)C1`, -11%. For the molecule `Fc1ccc2c(c1)C1(CCNCC1)CC2OCC1CC1` (stereo not drawn), the cytotoxicity at 70.5 h was -7.69%. Under `COc1cc(N2CC3(CCN(c4ncccn4)C3)C2)ncn1` stands -9.27%; under `CN1CCCCC12CCN(c1nncs1)C2` (stereo not drawn), -9.3%; under `Cc1cccc(CN2C[C@@H](NC(=O)C3CCC3)[C@H]3COC[C@H]32)n1`, -5.38%. On to `O=C(c1cscn1)N1CCCC12CCCN(S(=O)(=O)c1ccccc1)C2` (stereo not drawn), for which the cytotoxicity at 70.5 h was -2.41%. Under `CCS(=O)(=O)N1CCCC2(CCCN2C(=O)c2cscn2)C1` (stereo not drawn) stands -0.54%; under `CN(Cc1ccccc1)CC1CC2(CO1)CN(Cc1cnn(C)c1)C2` (stereo not drawn), -6.11%. The result for `O=C(NC1CC1)N1Cc2[nH]nc(COCC3CC3)c2C1` reads -7.86%. The result for `Fc1cccnc1N1CCC2(CNCCC2(F)F)C1` (stereo not drawn) reads 12.5%; that for `Cn1nc(CN2CCCC2)c2c1CN(C(=O)c1ccc[nH]1)CC2`, 11.9%; that for `c1cnn(Cc2nnc3n2CCCN(c2nccs2)C3)c1`, 12.8%. On to `CN1CCN([C@@H]2CCN(C(N)=O)[C@H]2Cc2ccccc2)CC1`, for which the cytotoxicity at 70.5 h is -0.0899%. As for `Cn1cncc1CN1CCC2(CC1)CCN2c1ncccn1`, the cytotoxicity at 70.5 h is -2.28%. With `CC1c2ncc(COCC3CCOCC3)n2CCN1C(=O)c1ccoc1` (stereo not drawn), the cytotoxicity at 70.5 h was -2.87%. `c1cnc(N2CCCn3c(nnc3Cn3cccn3)C2)nc1`: the cytotoxicity at 70.5 h amounted to 1.91%. Under `CC(=O)N1CC[C@@H](N2CCN(C)CC2)[C@@H]1Cc1ccccc1` stands -2.96%; under `CCn1cc2c(n1)CN(S(=O)(=O)c1ccc(C)cc1)CC2COC` (stereo not drawn), -1.69%. Under `O=C(NC1CCc2c(ccc(=O)n2CC2CC2)C1)c1ccsc1` (stereo not drawn) stands -1.91%; under `CC(=O)N1CCC2(CC1)C(=O)N(c1cccnc1)c1ccc(F)cc12`, -4.87%; under `CCS(=O)(=O)N1C[C@@H]2COC[C@@H](Cc3nc(C)no3)[C@@H]2C1`, -2.03%.

In the case of `Cn1nc(CN2CCCCC2)c2c1CN(C(=O)Nc1cccc(F)c1)C2`, the cytotoxicity at 70.5 h came out at 11.6%.

As for `CC(C)NC(=O)N1CCN(C(=O)c2ccco2)CC2(CC(=O)N(C)C2)C1` (stereo not drawn), the cytotoxicity at 70.5 h was -23.2%. The result for `C[C@H]1C[C@H]2CN(C(=O)c3ccncn3)CC[C@@H]2O1` reads -19.6%; that for `O=C1COC2(CCN(S(=O)(=O)C3CC3)CC2)CN1c1ccsc1`, -17.5%.

With `COCC1COCCC12CCN(C(=O)CCc1ccccc1C)CC2` (stereo not drawn), the cytotoxicity at 70.5 h is -5.26%. Under `COCC1COCCC12CCN(C(=O)COc1ccccc1C)CC2` (stereo not drawn) stands -2.98%.

`c1cnc(N2CCC3(COCc4cnc(N5CCOCC5)nc43)C2)nc1` (stereo not drawn): the cytotoxicity at 70.5 h is -16.6%.

Regarding `CC(C)Nc1ccc2nc(C3CCNCC3)nn2c1`, the cytotoxicity at 70.5 h turned out to be 9.18%. `O=C(C1CC1)N1CCC2(COCc3cnc(N4CCOCC4)nc32)C1` (stereo not drawn): the cytotoxicity at 70.5 h was -12.6%. Under `Cn1nnc2c1C(COCC1CC1)CN(C(=O)Cc1cccs1)C2` (stereo not drawn) stands -19.3%; under `CN(C)C(=O)C1OC2(CCN(C(=O)N(C)C)CC2)c2ccccc21` (stereo not drawn), -19.3%. Consider `CN(C)C(=O)C1OC2(CCN(C(=O)c3ccoc3)CC2)c2ccccc21` (stereo not drawn), for which the cytotoxicity at 70.5 h is -14.7%. With `COCC1CN(C(=O)Cc2cccs2)Cc2nnn(C)c21` (stereo not drawn), the cytotoxicity at 70.5 h is -14.9%. On to `Cc1nc(N2CCCC2)nc2c1CCN(C(=O)NC(C)C)CC2`, for which the cytotoxicity at 70.5 h came to 30.9%. Consider `CC(C)NC(=O)c1cc2c(s1)CCN2C(=O)CN(C)C`, for which the cytotoxicity at 70.5 h is -4.91%. For the molecule `CC(C)NC(=O)C1CN(C(=O)Cc2ccccc2)CC12CCOCC2` (stereo not drawn), the cytotoxicity at 70.5 h was -13.2%. Under `COc1ncccc1C(=O)N1CC[C@H]2C[C@@H](c3nccs3)O[C@@H]2C1` stands -23.1%; under `O=C(c1ccccc1)N1CC[C@H]2C[C@@H](c3nccs3)O[C@@H]2C1`, -17.1%; under `CC(C)NC(=O)C1CN(C(=O)Cc2cccc(F)c2)CC12CCOCC2` (stereo not drawn), 10.1%. The result for `CN(C)S(=O)(=O)N1C[C@H]2C[C@H](C(=O)Nc3ccccc3)[C@@H](C1)O2` reads -5.82%; that for `CC(C)CC(=O)N1CC[C@H]2C[C@H](c3nccs3)O[C@@H]2C1`, 2.63%; that for `Cc1nc(N2CCCC2)nc2c1CCN(C(=O)NC1CCCC1)CC2`, 1.4%. Under `O=C(Nc1ccccc1)[C@H]1C[C@@H]2CN(S(=O)(=O)c3ccccc3)C[C@H]1O2` stands -10.9%; under `CCC1=N[C@@]2(CC[C@@H]3CN(CC(=O)N(C)C)C[C@@H]32)C(=O)N1CC(C)C`, -6.91%; under `CC(C)N1CCC2(CC1)C(=O)N(c1cccnc1)c1c(F)cccc12`, -2.98%. Consider `CCS(=O)(=O)N1CCC2(CC1)CC1(CCN(CCOC)CC1)C(=O)N2C`, for which the cytotoxicity at 70.5 h was -6.01%. The result for `CCN1CCCC12CCCN(c1ncccn1)C2` (stereo not drawn) reads -9.5%. Turning to `COc1cc(N2CC3(CCN(S(C)(=O)=O)C3)C2)ncn1`, the cytotoxicity at 70.5 h is -12%. Under `CN1CCCCC12CCN(c1nncs1)CC2` stands 1.8%.

Regarding `O=C(N[C@@H]1CN(Cc2cccs2)[C@@H]2COC[C@@H]21)C1CCC1`, the cytotoxicity at 70.5 h was -4.79%. Under `CCN1C(=O)[C@H]2CN(CC(C)C)C[C@H]2C12CCN(C(=O)NC(C)C)CC2` stands -1.18%. The result for `CC(C)CN1CCCC12CCN(c1nncs1)C2` (stereo not drawn) reads -4.38%. The result for `CCc1cnc(N2CCc3ncnc(N4CCN(C)CC4)c3CC2)nc1` reads -3.37%; that for `CCCS(=O)(=O)N1CCc2c(COCC)cncc2C1`, -3.03%. `O=C(N1CCCO1)[C@]12COC[C@H]1CN(Cc1nccs1)C2`: the cytotoxicity at 70.5 h was -7.21%. The result for `Cn1ccnc1CN1CCO[C@H]2C(CNC(=O)c3ccco3)CC[C@@H]21` (stereo partly drawn) reads -0.67%; that for `Cc1ncc2c(c1C(=O)O)CCN(c1ncc(F)cn1)C2`, -0.54%; that for `CCN1CC2(CC1=O)CN(Cc1ccc(C)o1)CCN(C(=O)C(C)C)C2` (stereo not drawn), -16.6%. The result for `CN(C)C(=O)CC1CC2(CCN(Cc3ccsc3)CC2)c2ccccc21` (stereo not drawn) reads -16.8%; that for `Cn1cccc1C(=O)N1C[C@@H](OCc2ccncc2)[C@@H]2OCCC[C@@H]21`, -1.09%.

For the molecule `O=C(NC[C@]12COC[C@H]1CN(Cc1ccco1)C2)c1ccccc1`, the cytotoxicity at 70.5 h was -14.6%. As for `Cc1cccc(CN2CC[C@@H]3[C@@H]2CCN3C(=O)c2cc(C)oc2C)n1`, the cytotoxicity at 70.5 h was 13.1%.

With `O=C(C[C@@H]1COC[C@H]2CN(Cc3ccc(F)cc3)C[C@@H]12)N1CCCC1`, the cytotoxicity at 70.5 h worked out at 2.93%.

As for `COCC(=O)N1CCn2c(COc3cccnc3)cnc2C1C` (stereo not drawn), the cytotoxicity at 70.5 h came out at 6.09%. Under `O=S(=O)(C1CC1)N1C[C@@H]2COC[C@]2(COc2ccccn2)C1` stands -18.1%; under `CS(=O)(=O)N1C[C@H]2CCC[C@@]2(COc2ccccn2)C1`, -16.1%; under `CCS(=O)(=O)N1CCCC2(COCCN(c3ccccn3)C2)C1` (stereo not drawn), -18.6%.

As to `Cn1cc(N2CC3(CCN(Cc4ccccc4)CC3)OCC2=O)cn1`, the cytotoxicity at 70.5 h is 52.7%. Under `CC(C)NC(=O)C1CN(Cc2ccc(F)cc2)CC12CCOCC2` (stereo not drawn) stands -10.5%. `Cn1cc(N2CC3(CCN(CC4CC4)CC3)OCC2=O)cn1`: the cytotoxicity at 70.5 h was -12.5%.

For the molecule `COC[C@@H]1CCC[C@@]12CN(Cc1ccco1)CCO2`, the cytotoxicity at 70.5 h was -15.7%.

Turning to `O=C(O)c1cc2c(nc1N1CCOCC1)CCN(C1CCOC1)CC2` (stereo not drawn), the cytotoxicity at 70.5 h was -4.23%.

For the molecule `COc1ccc(CN2C[C@H]3CCC[C@@H](CN(C)C4CC4)[C@H]3C2)cn1`, the cytotoxicity at 70.5 h came to 10.8%.

With `CO[C@@H]1CCN(S(=O)(=O)N(C)C)[C@@H]2CN(Cc3cccnc3)C[C@@H]21`, the cytotoxicity at 70.5 h was -4.13%.

Regarding `Cn1nccc1-c1ncc2c(c1C(=O)O)CCN(Cc1ccncc1)C2`, the cytotoxicity at 70.5 h is -0.712%. For the molecule `CNC(=O)CN1CCOCC12CCN(Cc1ccncc1)CC2`, the cytotoxicity at 70.5 h is -16.2%. The result for `Cc1cccc(CN2C(=O)CO[C@@H]3CN(Cc4cnn(C)c4)C[C@H]32)c1` reads 4.73%; that for `O=C1COC2(CCN(Cc3cccnc3)CC2)CN1`, 12.3%. For the molecule `Cc1cccc(CN2CC[C@@H]3[C@@H]2CCN3C(=O)c2ccoc2C)n1`, the cytotoxicity at 70.5 h turned out to be 0.304%.

Regarding `Cc1ccc2c(n1)N(CC1CC1)CCN(C(=O)c1ccncc1F)C2`, the cytotoxicity at 70.5 h amounted to 0.364%. As for `CC(C)CN1CCN(C(=O)c2ccncc2F)Cc2cccnc21`, the cytotoxicity at 70.5 h is -9.62%. Under `COC1COC2(CCN(Cc3ccc4ccccc4n3)CC2)C1` (stereo not drawn) stands -12.9%; under `Fc1cccnc1O[C@@H]1CN(Cc2ccco2)[C@@H]2CCCO[C@@H]21`, -12.4%; under `Cc1noc(C)c1CN1C[C@H](OCc2ccncc2)[C@H]2OCCC[C@H]21`, -13.2%.

In the case of `Cc1cnc(N2CCOCC3(CCN(c4ccccn4)C3)C2)nc1` (stereo not drawn), the cytotoxicity at 70.5 h is -9.64%.

For `c1ccc(N2CCC3(COCCN(c4ncccn4)C3)C2)nc1` (stereo not drawn), the cytotoxicity at 70.5 h is -10%. The result for `c1cc(CN2C[C@@H]3OCCN(CCN4CCCC4)[C@@H]3C2)ccn1` reads -8.99%.
